Activity calls are given as the source filed them. The rule behind the calls is not given here.
Key:
[1] = molecular target: Replicase polyprotein 1ab (Severe acute respiratory syndrome-related coronavirus) (UniProt P0C6X7)
[2] = molecular target: Replicase polyprotein 1ab (Severe acute respiratory syndrome-related coronavirus) (UniProt P0C6X7); assay: (§1) Inhibition of SARS coronavirus 3C-like protease cis-cleavage activity transfected in african green monkey Vero cells using SAVLQSGFRK as substrate after 5 hrs by luciferase reporter gene assay; assay type: cell-based
[3] = molecular target: T1, Replicase polyprotein 1ab (Severe acute respiratory syndrome-related coronavirus, UniProt P0C6X7); assay: as §1; assay type: cell-based
Vero = assay: (§2) Cytotoxicity against african green monkey Vero cells assessed as cell death by MTT assay; assay type: cell-based; conditions: chlorocebus sabaeus, vero
[4] = Selectivity index, ratio of CC50 for african green monkey Vero cells to IC50 for SARS coronavirus 3C-like protease cis-cleavage activity transfected in african green monkey Vero cells; assay type: functional
[5] = molecular target: Replicase polyprotein 1ab (Severe acute respiratory syndrome-related coronavirus) (UniProt P0C6X7); remark: listed apart in the source
[6] = molecular target: T1, Replicase polyprotein 1ab
[7] = molecular target: T1, Replicase polyprotein 1ab; remark: listed apart in the source
[8] = molecular target: Replicase polyprotein 1ab (Severe acute respiratory syndrome-related coronavirus) (UniProt P0C6X7); assay: (§3) Binding affinity to SARS coronavirus 3C-like protease by SPR analysis
[9] = molecular target: T1, Replicase polyprotein 1ab; assay: as §3
[10] = molecular target: Replicase polyprotein 1ab (Severe acute respiratory syndrome-related coronavirus) (UniProt P0C6X7); remark: listed apart in the source
[11] = molecular target: Replicase polyprotein 1ab (Severe acute respiratory syndrome-related coronavirus) (UniProt P0C6X7); remark: listed apart in the source
[12] = molecular target: Replicase polyprotein 1ab (Severe acute respiratory syndrome-related coronavirus) (UniProt P0C6X7); remark: listed apart in the source
[13] = molecular target: Replicase polyprotein 1ab (Severe acute respiratory syndrome-related coronavirus) (UniProt P0C6X7); assay: Inhibition of SARS coronavirus 3C-like protease cis-cleavage activity transfected in african green monkey Vero cells using SAVLQSGFRK as substrate at 200 uM after 5 hrs by luciferase reporter gene assay relative to control; assay type: cell-based
[14] = as §2; assay type: cell-based; conditions: chlorocebus sabaeus, Vero cells

Row | SMILES | inhibition [1] | inhibition [2] | IC50 [3] [µM] | CC50 (Vero) [µM] | Ratio CC50/IC50 [4] | inhibition [5] | IC50 [6] [µM] | Ki [7] [µM] | Activity [8] | Kd [9] [µM] | Ratio IC50 [10] | Ratio IC50 [11] | Ratio IC50 [12] | inhibition [13] [%] | CC50 [14] [µM]
1 | Oc1cc(O)cc(Oc2c(O)cc(O)c3c2Oc2c(O)cc(Oc4c(O)cc(O)cc4O)cc2O3)c1 | Active | Dose-dependent effect | 112 | > 200 | >1.8 | Dose-dependent effect | 42.1 | 19.3 |  |  |  |  |  |  | 
2 | Oc1cc(O)cc(Oc2c(Oc3c(O)cc(O)cc3O)cc(O)c3c2Oc2c(O)cc(O)cc2O3)c1 [2-PHLOROECKOL] | Active | Dose-dependent effect | 112 | > 200 | >1.8 | Dose-dependent effect | 13.3 | 24 |  |  |  |  |  |  | 
3 | Oc1cc(O)cc(Oc2c(O)cc(O)c3c2Oc2c(O)cc(Oc4c(O)cc(Oc5c(O)cc(O)c6c5Oc5c(O)cc(O)cc5O6)cc4O)cc2O3)c1 [DIECKOL] | Active | Dose-dependent effect | 68.1 | > 200 | >2.9 | Dose-dependent effect | 2.7 | 2.4 | Dose-dependent effect | 10.3 | 60 | 50 | 30 |  | 
4 | Oc1cc(O)c2oc3cc(O)c4oc5cc(O)cc(O)c5oc4c3oc2c1 [DIOXINODEHYDROECKOL] |  | Dose-dependent effect | 146 | > 200 | >1.4 | Dose-dependent effect | 158 |  |  |  |  |  |  |  | 
5 | Oc1cc(O)cc(Oc2c(O)cc(O)c3c2Oc2c(O)cc(O)cc2O3)c1 [ECKOL] | Active |  |  | > 200 | <1 | Dose-dependent effect | 8.8 | 8.2 |  |  |  |  |  | 30 | 
6 | Oc1cc(O)c(Oc2cc(O)cc(O)c2Oc2cc(O)cc(O)c2-c2c(O)cc(O)cc2O)c(O)c1 [FUCODIPHLOROETHOL G] | Active | Dose-dependent effect | 177 | > 200 | >1.1 | Dose-dependent effect | 22.5 | 63.5 |  |  |  |  |  |  | 
7 | COc1ccc([C@@H]2CC(=O)c3c(O)cc(O)cc3O2)cc1O [HESPERETIN] |  |  |  |  |  |  |  |  |  | 24.5 |  |  |  |  | 
8 | Oc1cc(O)cc(Oc2c(O)cc(O)c3c2Oc2c(O)cc4oc5c(Oc6cc(O)cc(O)c6)c(O)cc(O)c5c4c2O3)c1 [PHLOROFUCOFUROECKOL A] | Active | Dose-dependent effect | 175 | > 200 | >1.1 | Dose-dependent effect | 16.7 | 10.6 |  |  |  |  |  |  | 
9 | Oc1cc(O)cc(O)c1 [PHLOROGLUCINOL] |  |  |  | > 200 |  |  | > 200 |  |  |  |  |  |  |  | 
10 | Oc1cc(O)cc(Oc2c(O)cc(Oc3c(O)cc(O)cc3O)cc2O)c1 [TRIPHLORETHOL A] |  |  |  |  | <1 | Dose-dependent effect |  |  |  |  |  |  |  | 15 | > 200

Source: ChEMBL document CHEMBL2390950, “Dieckol, a SARS-CoV 3CL(pro) inhibitor, isolated from the edible brown algae Ecklonia cava” (Bioorg Med Chem, 2013)
